Data as given in patent publication US20020137929A1, “1 - (3-heterocyclylphenyl) isothiourea, -isourea, -guanidine and -amidine herbicidal agents” (Intellectual Property Department, BASF Aktiengesellschaft, priority 1998, published 2002).

Columns and labels:
[1] = tested on: ABUTH (Velvetleaf); experiment: Postemergence herbicidal evaluation; type: in vivo, Abutilon theophrasti; conditions: postemergence
In short: (§1)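 Two-week seedlings sprayed postemergence at 40 psi; formulation: 1:1 acetone/water, 0.5% TWEEN 20; application ≈0.0156–0.500 kg/ha. Greenhouse grow-out, then 0–9 visual scoring at 4–5 weeks.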

[2] = tested on: GALAP (Galium); experiment: Postemergence herbicidal evaluation; type: in vivo, Galium aparine; conditions: postemergence
In short: as §1

[3] = tested on: ECHCG (Barnyardgrass); experiment: Postemergence herbicidal evaluation; type: in vivo, Echinochloa crus-galli; conditions: postemergence
In short: as §1

[4] = tested on: SETVI (Foxtail, Green); experiment: Postemergence herbicidal evaluation; type: in vivo, Setaria viridis; conditions: postemergence
In short: as §1

[5] = tested on: ORYSAT (Rice, Tebonnet); experiment: Postemergence herbicidal evaluation; type: in vivo, Oryza sativa, (L.) Tebonnet; conditions: postemergence
In short: as §1

[6] = tested on: IPOHE (Morningglory, Ivyleaf); experiment: Preemergence herbicidal evaluation; type: in vivo, Ipomoea hederacea; conditions: rated 4-5 weeks after treatment
In short: (§2)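 Each species is sown separately in potting soil over roughly an inch of soil before any emergence. The soil surface then receives an aqueous acetone spray delivering about 0.0156 to 0.500 kg/ha of compound. After four to five weeks, injury is scored from 0 to 9 relative to a control.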

[7] = tested on: TRZAWR (Wheat, Winter, cv Riband); experiment: Preemergence herbicidal evaluation; type: in vivo, Triticum aestivum; conditions: rated 4-5 weeks after treatment
In short: as §2

[8] = tested on: ZEAMX (Corn, Field); experiment: Preemergence herbicidal evaluation; type: in vivo, Zea mays; conditions: rated 4-5 weeks after treatment
In short: as §2

[9] = tested on: ECHORC (Watergrass (Calif.)); experiment: Preemergence weed control under flooded paddy conditions; type: in vivo, Echinochloa oryzoides; conditions: rated 3-4 weeks after treatment
In short: (§3)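 Ratings on a 0-9 visual scale cover stand, vigor, malformation, size, chlorosis and overall appearance relative to a control, taken three to four weeks post-treatment. Application was into flood water over freshly sown silt loam at roughly 0.0313 to 0.500 kg/ha.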

[10] = tested on: CYPIR (Rice Flatsedge); experiment: as above; type: in vivo, Cyperus iria; conditions: rated 3-4 weeks after treatment
In short: as §3

[11] = tested on: MOOVA (Monochoria); experiment: as above; type: in vivo, Monochoria vaginalis; conditions: rated 3-4 weeks after treatment
In short: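 Herbicidal effect is scored visually on a 0-9 scale against an untreated control, three to four weeks after compounds are pipetted into the flood water (1.5 to 3 cm deep) over seeds planted in silt loam at 0.5 cm depth. Rates: about 0.0313 to 0.500 kg/ha.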

[12] = tested on: CYPIR (Rice Flatsedge); experiment: Postemergence weed control under flooded paddy conditions; type: in vivo, Cyperus iria; conditions: postemergence weeds
In short: (§4)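 Flood-water application, about 0.0313–0.500 kg/ha a.i. in aqueous/acetone 50/50 v/v; water depth 1.5–3 cm throughout. Weeds 3–5 cm, rice 1.5–2.5 leaf. Greenhouse; 0–9 visual rating vs control at 3–4 wk.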

[13] = tested on: CYPSE (Flatsedge); experiment: as above; type: in vivo, Cyperus serotinus; conditions: postemergence weeds
In short: as §4

[14] = tested on: SAGPY (Arrowhead (Pygmaea)); experiment: as above; type: in vivo, Sagittaria pygmaea; conditions: postemergence weeds
In short: as §4

[15] = rate 0.0313 kg/ha, 3-4 weeks after treatment
[16] = rate 0.0625 kg/ha, 3-4 weeks after treatment
[17] = rate 0.1250 kg/ha, 3-4 weeks after treatment
[18] = rate 0.2500 kg/ha, 3-4 weeks after treatment
[19] = Rate 0.0313 kg/ha, rated 3 to 4 weeks after treatment
[20] = Rate 0.0625 kg/ha, rated 3 to 4 weeks after treatment
[21] = Rate 0.1250 kg/ha, rated 3 to 4 weeks after treatment
[22] = Rate 0.2500 kg/ha, rated 3 to 4 weeks after treatment

With `CCOC(=O)CN1C(=O)CSC1=Nc1cc(-n2c(=O)cc(C(F)(F)F)n(C)c2=O)c(F)cc1Cl` [Compound 8, Ethyl 2-{{2-chloro-5-[3,6-dihydro-3-methyl-2,6-dioxo-4-(trifluoromethyl)-1(2H)pyrimidinyl]-4-fluorophenyl}imino}-4-oxo-3-thiazolidineacetate] the ABUTH herbicidal rating ([1]; rate 0.0157 kg/ha) was 9.0, the ABUTH herbicidal rating ([1]; rate 0.0313 kg/ha) was 9.0 and the ABUTH herbicidal rating ([1]; rate 0.0625 kg/ha) was 9.0. For the same molecule, the ABUTH herbicidal rating ([1]; rate 0.1250 kg/ha) was 9.0, the GALAP herbicidal rating ([2]; rate 0.0157 kg/ha) was 3.0 and the GALAP herbicidal rating ([2]; rate 0.0313 kg/ha) was 4.5. The GALAP herbicidal rating ([2]; rate 0.0625 kg/ha) was 6.3, the GALAP herbicidal rating ([2]; rate 0.1250 kg/ha) was 6.8 and the ECHCG herbicidal rating ([3]; rate 0.0157 kg/ha) was 3.0. The ECHCG herbicidal rating ([3]; rate 0.0313 kg/ha) was 2.1, the ECHCG herbicidal rating ([3]; rate 0.0625 kg/ha) was 5.3 and the ECHCG herbicidal rating ([3]; rate 0.1250 kg/ha) was 8.2. The SETVI herbicidal rating ([4]; rate 0.0313 kg/ha) was 5.3, the SETVI herbicidal rating ([4]; rate 0.0625 kg/ha) was 7.6 and the SETVI herbicidal rating ([4]; rate 0.1250 kg/ha) was 9.0. It also gave an ORYSAT herbicidal rating ([5]; rate 0.0157 kg/ha) of 2.0, an ORYSAT herbicidal rating ([5]; rate 0.0313 kg/ha) of 2.7 and an ORYSAT herbicidal rating ([5]; rate 0.0625 kg/ha) of 4.1. The ORYSAT herbicidal rating ([5]; rate 0.1250 kg/ha) was 5.3, the “IPOHE preemergence herbicidal rating” value ([6]; rate 0.0156 kg/ha) was 1.1 and the “IPOHE preemergence herbicidal rating” value ([6]; rate 0.0313 kg/ha) was 4.4. For the same molecule, the “IPOHE preemergence herbicidal rating” value ([6]; rate 0.0625 kg/ha) was 6.4, the “IPOHE preemergence herbicidal rating” value ([6]; rate 0.1250 kg/ha) was 8.6 and the “IPOHE preemergence herbicidal rating” value ([6]; rate 0.2500 kg/ha) was 8.6. The “IPOHE preemergence herbicidal rating” value ([6]; rate 0.5000 kg/ha) was 9.0, the “TRZAWR preemergence herbicidal rating” value ([7]; rate 0.0156 kg/ha) was 0.2 and the “TRZAWR preemergence herbicidal rating” value ([7]; rate 0.0313 kg/ha) was 0.8. The “TRZAWR preemergence herbicidal rating” value ([7]; rate 0.0625 kg/ha) was 2.8, the “TRZAWR preemergence herbicidal rating” value ([7]; rate 0.1250 kg/ha) was 5.5 and the “TRZAWR preemergence herbicidal rating” value ([7]; rate 0.2500 kg/ha) was 7.2. For the same molecule, the “TRZAWR preemergence herbicidal rating” value ([7]; rate 0.5000 kg/ha) was 7.8, the “ZEAMX preemergence herbicidal rating” value ([8]; rate 0.0156 kg/ha) was 2.2 and the “ZEAMX preemergence herbicidal rating” value ([8]; rate 0.0313 kg/ha) was 4.9. The “ZEAMX preemergence herbicidal rating” value ([8]; rate 0.0625 kg/ha) was 6.4, the “ZEAMX preemergence herbicidal rating” value ([8]; rate 0.1250 kg/ha) was 7.4 and the “ZEAMX preemergence herbicidal rating” value ([8]; rate 0.2500 kg/ha) was 7.9. The “ZEAMX preemergence herbicidal rating” value ([8]; rate 0.5000 kg/ha) was 8.3, the “Herbicidal rating ECHORC” value ([9]; 0.0313 kg/ha) was 6.5 and the “Herbicidal rating ECHORC” value ([9]; 0.0625 kg/ha) was 6.5. The “Herbicidal rating ECHORC” value ([9]; 0.1250 kg/ha) was 7.5, the “Herbicidal rating ECHORC” value ([9]; 0.2500 kg/ha) was 8.5 and the “Herbicidal rating CYPIR” value ([10]; 0.0313 kg/ha) was 0.0. For the same molecule, the “Herbicidal rating CYPIR” value ([10]; 0.0625 kg/ha) was 0.0, the “Herbicidal rating CYPIR” value ([10]; 0.1250 kg/ha) was 0.0 and the “Herbicidal rating CYPIR” value ([10]; 0.2500 kg/ha) was 4.0. The “Herbicidal rating MOOVA” value ([11]; 0.0313 kg/ha) was 9.0, the “Herbicidal rating MOOVA” value ([11]; 0.0625 kg/ha) was 9.0 and the “Herbicidal rating MOOVA” value ([11]; 0.1250 kg/ha) was 9.0. The “Herbicidal rating MOOVA” value ([11]; 0.2500 kg/ha) was 9.0, the “Herbicidal rating CYPIR” value [12, 15] was 0.0 and the “Herbicidal rating CYPIR” value [12, 16] was 0.0. The “Herbicidal rating CYPIR” value [12, 17] was 0.0, the “Herbicidal rating CYPIR” value [12, 18] was 4.0 and the “Herbicidal rating CYPSE” value [13, 15] was 0.0. The “Herbicidal rating CYPSE” value [13, 16] was 0.0, the “Herbicidal rating CYPSE” value [13, 17] was 0.0 and the “Herbicidal rating CYPSE” value [13, 18] was 0.0. For the same molecule, the “Herbicidal rating SAGPY” value [14, 15] was 0.0, the “Herbicidal rating SAGPY” value [14, 16] was 0.0 and the “Herbicidal rating SAGPY” value [14, 17] was 0.0. For the same molecule, the “Herbicidal rating SAGPY” value [14, 18] was 0.0.

For `C=CCOC(=O)CC1SC(=Nc2cc(-n3c(=O)cc(C(F)(F)F)n(C)c3=O)c(F)cc2Cl)N(CC=C)C1=O` (stereo not drawn) [Compound 65, Allyl 3-allyl-2-{(2-chloro-5-[3,6-dihydro-3-methyl-2,6-dioxo-4-(trifluoromethyl)-1(2H)-pyrimidinyl]-4-fluorophenyl}imino}-4-oxo-5-thiazolidineacetate], the ABUTH herbicidal rating ([1]; rate 0.0158 kg/ha) was 9.0, the ABUTH herbicidal rating ([1]; rate 0.0315 kg/ha) was 9.0 and the ABUTH herbicidal rating ([1]; rate 0.0630 kg/ha) was 9.0. For the same molecule, the GALAP herbicidal rating ([2]; rate 0.0158 kg/ha) was 2.0, the GALAP herbicidal rating ([2]; rate 0.0315 kg/ha) was 5.0 and the GALAP herbicidal rating ([2]; rate 0.0630 kg/ha) was 9.0. The ECHCG herbicidal rating ([3]; rate 0.0158 kg/ha) was 3.0, the ECHCG herbicidal rating ([3]; rate 0.0315 kg/ha) was 7.0 and the ECHCG herbicidal rating ([3]; rate 0.0630 kg/ha) was 7.0. It also gave an SETVI herbicidal rating ([4]; rate 0.0158 kg/ha) of 7.0, an SETVI herbicidal rating ([4]; rate 0.0315 kg/ha) of 7.0 and an SETVI herbicidal rating ([4]; rate 0.0630 kg/ha) of 9.0. For the same molecule, the ORYSAT herbicidal rating ([5]; rate 0.0158 kg/ha) was 4.0, the ORYSAT herbicidal rating ([5]; rate 0.0315 kg/ha) was 6.0 and the ORYSAT herbicidal rating ([5]; rate 0.0630 kg/ha) was 6.0. The “Preemergence herbicidal rating IPOHE” value ([6]; rate 0.0156 kg/ha) was 0.0, the “Preemergence herbicidal rating IPOHE” value ([6]; rate 0.0313 kg/ha) was 0.0 and the “Preemergence herbicidal rating IPOHE” value ([6]; rate 0.0625 kg/ha) was 1.0. For the same molecule, the “Preemergence herbicidal rating IPOHE” value ([6]; rate 0.1250 kg/ha) was 9.0, the “Preemergence herbicidal rating IPOHE” value ([6]; rate 0.2500 kg/ha) was 7.0 and the “Preemergence herbicidal rating TRZAWR” value ([7]; rate 0.0313 kg/ha) was 0.0. The “Preemergence herbicidal rating TRZAWR” value ([7]; rate 0.0625 kg/ha) was 1.0, the “Preemergence herbicidal rating TRZAWR” value ([7]; rate 0.1250 kg/ha) was 1.0 and the “Preemergence herbicidal rating TRZAWR” value ([7]; rate 0.2500 kg/ha) was 3.0. For the same molecule, the “Preemergence herbicidal rating ZEAMX” value ([8]; rate 0.0156 kg/ha) was 0.0, the “Preemergence herbicidal rating ZEAMX” value ([8]; rate 0.0313 kg/ha) was 0.0 and the “Preemergence herbicidal rating ZEAMX” value ([8]; rate 0.0625 kg/ha) was 1.0. For the same molecule, the “Preemergence herbicidal rating ZEAMX” value ([8]; rate 0.1250 kg/ha) was 2.0, the “Preemergence herbicidal rating ZEAMX” value ([8]; rate 0.2500 kg/ha) was 4.0 and the “ECHORC herbicidal effect rating” value ([9]; 0.0313 kg/ha) was 5.0. The “ECHORC herbicidal effect rating” value ([9]; 0.0625 kg/ha) was 5.0, the “ECHORC herbicidal effect rating” value ([9]; 0.1250 kg/ha) was 6.0 and the “ECHORC herbicidal effect rating” value ([9]; 0.2500 kg/ha) was 7.0. The “CYPIR herbicidal effect rating” value ([10]; 0.0313 kg/ha) was 6.0, the “CYPIR herbicidal effect rating” value ([10]; 0.0625 kg/ha) was 7.0 and the “CYPIR herbicidal effect rating” value ([10]; 0.1250 kg/ha) was 7.0. For the same molecule, the “CYPIR herbicidal effect rating” value ([10]; 0.2500 kg/ha) was 8.0, the “MOOVA herbicidal effect rating” value ([11]; 0.0313 kg/ha) was 9.0 and the “MOOVA herbicidal effect rating” value ([11]; 0.0625 kg/ha) was 9.0. The “MOOVA herbicidal effect rating” value ([11]; 0.1250 kg/ha) was 9.0, the “MOOVA herbicidal effect rating” value ([11]; 0.2500 kg/ha) was 9.0 and the “Herbicidal rating CYPIR” value [12, 19] was 6.0. The “Herbicidal rating CYPIR” value [12, 20] was 7.0, the “Herbicidal rating CYPIR” value [12, 21] was 7.0 and the “Herbicidal rating CYPIR” value [12, 22] was 8.0. For the same molecule, the “Herbicidal rating CYPSE” value [13, 19] was 0.0, the “Herbicidal rating CYPSE” value [13, 20] was 0.0 and the “Herbicidal rating CYPSE” value [13, 21] was 0.0. For the same molecule, the “Herbicidal rating CYPSE” value [13, 22] was 0.0, the “Herbicidal rating SAGPY” value [14, 19] was 2.0 and the “Herbicidal rating SAGPY” value [14, 20] was 4.0. For the same molecule, the “Herbicidal rating SAGPY” value [14, 21] was 5.0 and the “Herbicidal rating SAGPY” value [14, 22] was 7.0.
